From US8703811B2, “Small molecule inhibitors of Plasmodium falciparum dihydroorotate dehydrogenase” (Genzyme Corporation, priority 2008, dated 2014)

What was measured:
pfDHODH [1] = target: T1, pfDHODH (Plasmodium falciparum (isolate 3D7), UniProt Q08210); experiment: DHODH chromogen reduction (DCIP) assay, pfDHODH; type: biochemical, P. falciparum; conditions: 200 μM L-DHO
pbDHODH = pbDHODH (Plasmodium berghei, UniProt A0A509AEH5); experiment: DCIP assay, pbDHODH; type: biochemical, P. berghei; conditions: 200 μM L-DHO, 18 μM CoQD, 100 μM DCIP, 20 nM enzyme
Sequence of pbDHODH (A0A509AEH5 1-517): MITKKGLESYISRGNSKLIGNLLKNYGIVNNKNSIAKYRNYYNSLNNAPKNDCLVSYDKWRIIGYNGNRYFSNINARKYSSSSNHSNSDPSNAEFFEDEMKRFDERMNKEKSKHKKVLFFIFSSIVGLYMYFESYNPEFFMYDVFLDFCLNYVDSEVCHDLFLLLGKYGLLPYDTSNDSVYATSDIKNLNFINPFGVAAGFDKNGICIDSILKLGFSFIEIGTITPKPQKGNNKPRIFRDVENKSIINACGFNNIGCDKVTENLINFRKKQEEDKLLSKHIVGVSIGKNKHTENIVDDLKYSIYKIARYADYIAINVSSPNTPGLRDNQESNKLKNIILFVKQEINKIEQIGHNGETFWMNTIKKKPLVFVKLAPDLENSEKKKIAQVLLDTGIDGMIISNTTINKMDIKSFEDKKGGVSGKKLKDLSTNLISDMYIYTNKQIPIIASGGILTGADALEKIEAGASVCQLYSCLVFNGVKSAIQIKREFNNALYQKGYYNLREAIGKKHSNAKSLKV
Description: (§1) Type 2 DHODH activity was monitored with either the direct assay measuring the formation of orotate or via a chromogen reduction assay using DCIP. Although the extinction coefficient and absorption wavelength are preferable for the chromogen reduction assay, the inorganic electron acceptor DCIP can be utilized by DHODH as the final electron acceptor in lieu of CoQn when the endogenous substrate is at a low concentration. As such, the direct assay was used to measure the binding affinity of pfDHODH to CoQD and L-DHO. The enzymatic reaction was performed by varying the L-DHO concentration (1-400 μM) or CoQD concentration (1-200 μM) while keeping the other substrate constant and in excess. The formation of orotate was measured continuously at 296 nm (ε296=4.3 mM^−1 cm^−1). Inhibition of DHODH by small molecules was evaluated using the chromogen based assay with a final substrate concentration of 200 μM L-DHO, 18 μM CoQD, and 100 μM DCIP, unless otherwise noted. The reduction of DCIP was monitored at 600 nm (ε600=18.8 mM^−1 cm^−1).
(§2) Substrate specificity and enzyme inhibition data was analyzed with GraphPad Prism Version 4 for Windows (GraphPad Software). Kinetic constants were calculated by non-linear regression fitting of the data to the Michaelis-Menten equation [36]. IC50 values were determined by non-linear regression fitting of the data to Equation 1: […]

pvDHODH = pvDHODH (Plasmodium vivax, UniProt A5K1N1); experiment: DCIP assay, pvDHODH; type: biochemical, P. vivax; conditions: 200 μM L-DHO, 18 μM CoQD, 100 μM DCIP, 20 nM enzyme
Sequence of pvDHODH (A5K1N1 1-572): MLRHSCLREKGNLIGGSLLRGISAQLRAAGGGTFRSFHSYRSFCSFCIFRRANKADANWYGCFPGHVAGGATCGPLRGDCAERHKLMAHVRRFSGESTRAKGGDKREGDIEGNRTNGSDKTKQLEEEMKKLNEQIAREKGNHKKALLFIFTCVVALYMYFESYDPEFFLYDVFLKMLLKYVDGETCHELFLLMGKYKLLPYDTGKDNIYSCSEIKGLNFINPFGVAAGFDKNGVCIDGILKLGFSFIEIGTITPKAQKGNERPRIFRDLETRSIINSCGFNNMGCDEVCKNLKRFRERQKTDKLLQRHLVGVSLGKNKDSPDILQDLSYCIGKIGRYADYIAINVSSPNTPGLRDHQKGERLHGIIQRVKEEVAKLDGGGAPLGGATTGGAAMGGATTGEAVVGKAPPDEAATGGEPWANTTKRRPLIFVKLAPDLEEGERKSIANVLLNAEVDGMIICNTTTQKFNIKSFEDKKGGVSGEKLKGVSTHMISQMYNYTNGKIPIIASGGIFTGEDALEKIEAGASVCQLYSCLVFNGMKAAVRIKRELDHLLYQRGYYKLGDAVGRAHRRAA
Description: as §1, §2

scDHODH = scDHODH (Saccharomyces cerevisiae (strain ATCC 204508 / S288c) (Baker's yeast), UniProt P28272); experiment: DCIP assay with fumarate, scDHODH; type: biochemical; conditions: 115 μM fumarate in lieu of CoQD
Sequence of scDHODH (P28272 whole entry): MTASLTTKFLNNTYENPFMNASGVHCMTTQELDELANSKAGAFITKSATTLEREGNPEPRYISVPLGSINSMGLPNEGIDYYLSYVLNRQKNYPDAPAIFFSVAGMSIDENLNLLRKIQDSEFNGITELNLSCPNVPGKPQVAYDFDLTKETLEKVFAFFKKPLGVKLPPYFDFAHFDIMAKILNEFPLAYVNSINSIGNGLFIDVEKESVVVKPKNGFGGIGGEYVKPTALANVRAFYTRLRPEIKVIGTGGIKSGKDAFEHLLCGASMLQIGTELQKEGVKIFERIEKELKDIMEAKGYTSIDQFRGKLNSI

hsDHODH = hsDHODH (Homo sapiens (Human), UniProt Q02127); experiment: DCIP assay, hsDHODH; type: biochemical; conditions: DCIP assay; 200 μM L-DHO, 18 μM CoQD, 100 μM DCIP, 20 nM enzyme; read-out: hsDHODH IC50
Sequence of hsDHODH (Q02127 29-395 limits assumed): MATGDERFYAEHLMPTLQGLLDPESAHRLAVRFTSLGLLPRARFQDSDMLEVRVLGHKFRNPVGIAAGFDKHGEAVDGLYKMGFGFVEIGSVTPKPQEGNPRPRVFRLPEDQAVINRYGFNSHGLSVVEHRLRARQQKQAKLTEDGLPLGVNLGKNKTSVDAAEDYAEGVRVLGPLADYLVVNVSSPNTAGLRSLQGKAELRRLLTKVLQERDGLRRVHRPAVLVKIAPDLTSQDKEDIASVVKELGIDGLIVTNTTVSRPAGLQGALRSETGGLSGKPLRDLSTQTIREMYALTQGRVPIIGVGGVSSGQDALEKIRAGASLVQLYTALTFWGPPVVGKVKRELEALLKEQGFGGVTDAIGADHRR
Description: as §1, §2

P. falciparum 3D7 = experiment: Inhibition of in vitro P. falciparum culture, [3H]-hypoxanthine uptake, 3D7; type: cell-based; conditions: Plasmodium falciparum, 3D7, Erythrocyte; [3H]-hypoxanthine uptake by parasite infected erythrocytes; read-out: 3D7 IC50
Summary of the method: (§3)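 Parasite growth inhibition measured as relative reduction of [3H]-hypoxanthine uptake in in vitro cultures. Values from non-linear regression fit, using relative growth velocity in place of product-formation rate.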

P. falciparum Dd2 = experiment: Inhibition of in vitro P. falciparum culture, [3H]-hypoxanthine uptake, Dd2; type: cell-based; conditions: Plasmodium falciparum, DD2, Erythrocyte, [3H]-hypoxanthine uptake by parasite infected erythrocytes; read-out: Dd2 IC50
Summary of the method: as §3

P. falciparum HB3 = experiment: Inhibition of in vitro P. falciparum culture, [3H]-hypoxanthine uptake, HB3; type: cell-based; conditions: Plasmodium falciparum, HB3, Erythrocyte; [3H]-hypoxanthine uptake by parasite infected erythrocytes; read-out: HB3 IC50
Description: (§4) P. falciparum strains D10, 3D7, HB3, and Dd2 were obtained from the Malaria Research and Reference Reagent Resource Center (Manassas, Va.). The parasite strains were maintained in vitro by method of Trager and Jensen. The inhibition of P. falciparum growth in the presence of drug was assessed by the relative reduction of [^3H]-hypoxanthine uptake as previously described. Inhibition data were fitted to Equation 1 using non-linear regression analysis except that the relative velocity of parasite growth was substituted for the rate of product formation.

P. falciparum D10 = experiment: Inhibition of in vitro P. falciparum culture, [3H]-hypoxanthine uptake, D10; type: cell-based; conditions: Plasmodium falciparum, D10, Erythrocyte; [3H]-hypoxanthine uptake by parasite infected erythrocytes; read-out: D10 IC50
Description: as §4

[2] = test system: P. falciparum D10-scDHODH; experiment: Inhibition of transgenic D10-scDHODH parasites, [3H]-hypoxanthine uptake; type: cell-based
Description: as §4
Transgenic parasites expressing scDHODH were generated as described by Painter et al. except that full length scDHODH was cloned directly into the pGem3Z vector without a GFP tag. The resultant plasmid was transfected into ring stages of P. falciparum D10 by electroporation and maintained in culture using standard methods under the selection of WR99210.

[3] = Renal Proximal Tubule Epithelial Cell Toxicity Screen; type: cell-based
Description: The Renal Proximal Tubule Epithelial Cell Toxicity Screen is designed to determine whether compound mixtures, breakouts or single compounds are toxic to normal renal epithelial cells. […] Basically, the screen consists of plating renal epithelial cells, exposing them to the desired compound(s) for 4 days and measuring cell viability using the Alamar Blue reagent.
Harvested Kidney Epithelial cells were diluted in REGM to 1.5×10^4 cells/mL. […] NOTE: One plate, the T=0 plate required that 20-30 wells be seeded, and all the other plates had 96 wells seeded. Plates were incubated in 37° C./5% CO2 incubator for 24 hours.
(§5) Alamar Blue solution (25 μL/well) was added to the T=0 plate and mixed. The plate was incubated in 37° C./5% CO2 incubator for 4 hours, mixed and then the fluorescence was measured. 10% Tween 20 stock (10 μL) was added into rows A-D in column 1 (positive control). DMSO (0.5 μL) was added into column 2 (negative control). Compounds were placed into designated wells for desired testing as follows:
Plates were mixed on the shaker, and then incubated in 37° C./5% CO2 incubator for 96 hours. Day 6:
Alamar Blue solution (25 μL/well) was added to the plates containing the compounds and mixed. Plates were incubated in 37° C./5% CO2 incubator for 4 hours, mixed and the fluorescence was measured.

[4] = Normal Human Dermal Fibroblast Toxicity Screen; type: cell-based; conditions: human, normal human dermal fibroblasts; four days exposure, Alamar Blue; read-out: Dermal Fibroblast LC50
Description: The Normal Human Dermal Fibroblast Toxicity Screen Protocol is designed to determine whether compound mixtures, breakouts or single compounds are toxic to normal human dermal fibroblasts. The screen involves plating the dermal fibroblasts and then exposing them to the compounds for four days, then cell viability is measured using Alamar Blue reagent.
Harvested Dermal Fibroblast cells were diluted in Growth Media to 0.25 to 0.3×10^5 cells/mL. […] NOTE: One plate, the T=0 plate required that 20-30 wells be seeded and all the other plates had 96 wells seeded. Plates were incubated in 37° C./5% CO2 incubator for 24 hours.
as §5, with “the plate was agitated.” for “mixed.”, “plate” for “plate was incubated”, “incubator was incubated” for “incubator”, “3” for “4”, “agitated the” for “mixed”, “and” for “and then”
Plates were mixed on the shaker, then incubated in 37° C./5% CO2 incubator for 96 hours.
Alamar Blue solution (25 μL/well) was added to the plates containing the compounds, and the plates were agitated. The plates were incubated in 37° C./5% CO2 incubator for 3 hours, agitated and then the fluorescence was measured.

pfDHODH [5] = target: T1, pfDHODH; experiment: pfDHODH activity with FeCy as electron acceptor; conditions: read-out: % Inhibition of Product Formation Rate with 50 μM Inhibitor, FeCy
Description: Inhibitors of DHODH, as classified by the chromogen reduction assay, were also evaluated for activity using FeCy as an electron acceptor. A final concentration of 5-50 nM DHODH, 200 μM L-DHO and 100 μM FeCy in Buffer C was used in this assay. Both the reduction of FeCy and the formation of orotate was monitored at 420 nm (ε420=1 mM^−1 cm^−1) and 290 nm (ε280=2 mM^−1 cm^−1), respectively, noting that two molecules of FeCy are reduced for one molecule of L-DHO. As with the previous assays, the reaction was performed at 25° C. and initiated with the addition of enzyme.

T1 sequence (Q08210 159-565 limits assumed): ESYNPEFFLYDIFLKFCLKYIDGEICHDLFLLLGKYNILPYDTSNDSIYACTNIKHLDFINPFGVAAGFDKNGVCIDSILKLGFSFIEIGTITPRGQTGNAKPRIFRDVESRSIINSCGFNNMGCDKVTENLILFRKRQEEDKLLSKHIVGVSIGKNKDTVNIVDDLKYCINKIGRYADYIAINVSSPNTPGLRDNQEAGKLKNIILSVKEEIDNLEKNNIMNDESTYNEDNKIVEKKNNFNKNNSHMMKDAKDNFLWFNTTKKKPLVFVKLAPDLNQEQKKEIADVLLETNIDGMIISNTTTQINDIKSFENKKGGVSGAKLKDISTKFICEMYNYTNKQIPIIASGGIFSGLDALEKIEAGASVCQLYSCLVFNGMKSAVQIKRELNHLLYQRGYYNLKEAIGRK

O=C(NC1CC1)c1ccc(N2CCSc3ccccc32)s1 [Compound 5, 5(2H-benzo[b][1,4]thiazin-4(3H)-yl)-N-cyclopropylthiophene-2-carboxamide]
inhibition at 50 µM (pfDHODH [1]; 50 μM inhibitor, 100 μM CoQD, 60 μM DCIP, read-out: % Inhibition of Product Formation Rate with 50 μM Inhibitor, CoQD): 97% | IC50 (pfDHODH [1]; DCIP assay, 18 μM CoQD, 100 μM DCIP, 20 nM enzyme, read-out: pfDHODH IC50): 0.25 ± 0.03 µM | IC50 (pbDHODH): 0.38 ± 0.06 µM | IC50 (pvDHODH): 0.28 ± 0.01 µM | IC50 (scDHODH): > 10 µM | IC50 (hsDHODH): 7.9 ± 0.4 µM | IC50 (P. falciparum 3D7): 0.89 µM | IC50 (P. falciparum Dd2): 0.62 µM | IC50 (P. falciparum HB3): 0.91 µM | IC50 (P. falciparum D10): 0.95 µM | IC50 ([2]; Plasmodium falciparum, D10, read-out: D10-scDHODH IC50): > 10 µM | efficacy against D10-scDHODH strain compared to D10 parent strain ([2]; dose-effect curves, FIG. 5): significantly reduced | CC50 at 96 h [3]: > 62 µM | CC50 at 96 h [4]: > 62 µM | inhibition at 50 µM (pfDHODH [5]): 23%
